# Assay results from patent US20030153590A1, “Method of treating alcoholism or alcohol abuse” (OY CONTRAL PHARMA LTD, priority 2001, published 2003).
# Experiments:
# [1] = system: subjects with impaired control of alcohol drinking; assay: Randomized, double-blind, placebo-controlled dose-response study of nalmefene once daily for 16 weeks; type: in vivo, human; details: for Spouse or significant other estimate of frequency of intoxication: At least once a week (number of subjects) / Spouse or significant other estimate of frequency of intoxication: At least once a week (share of subjects) / Spouse or significant other estimate of frequency of intoxication: Every day (number of subjects) / Spouse or significant other estimate of frequency of intoxication: Every day (share of subjects) / Spouse or significant other estimate of frequency of intoxication: Never (number of subjects) / Spouse or significant other estimate of frequency of intoxication: Never (share of subjects) / Spouse or significant other estimate of frequency of intoxication: Once or twice (number of subjects) / Spouse or significant other estimate of frequency of intoxication: Once or twice (share of subjects) / Spouse or significant other estimate of frequency of intoxication: Several times a month (number of subjects) / Spouse or significant other estimate of frequency of intoxication: Several times a month (share of subjects): week 16
# Procedure: A randomized, double-blind, placebo-controlled, multicenter, parallel group, dose-response study was conducted comparing placebo and two doses of nalmefene.
# The subjects were randomly allocated to receive placebo, 10 mg of nalmefene or 40 mg of nalmefene once daily for 16 weeks. […] During their participation in the study, the subjects were allowed to receive general counseling, but not any psychotherapy or other specific alcoholism treatment, including pharmacotherapy. The study consisted of a screening period (screening and inclusion visits) not exceeding 2 weeks, during which the eligibility of the study subjects were evaluated, and follow-up visits at 1, 3, 6, 9, 12, and 16 weeks after the study medication was started.
# The alcohol consumption was assessed with the Time Line Follow Back Method. The primary efficacy variable was the number of Heavy Drinking Days (HDDs) per month (defined as 28 days). A Heavy Drinking Day (HDD) was defined as a day when a male subject consumed 5 or more, or a female subject consumed 4 or more standard drinks. A standard drink contains approximately 12 g of ethanol. Secondary efficacy measures included other drinking variables (number of Drinking Days (DDs), ratio of HDDs to DDs, total consumption, and maximum and average intensity of drinking), Obsessive Compulsive Drinking Scale (OCDS), Alcohol Dependence Scale (ADS) and Drinkers Inventory of Consequences -scale (DrInC), clinical laboratory markers (ALAT, GGT, CDT, and MCV) and collateral reports.
# The monthly drinking of the subjects during the 12 weeks prior to the study was determined first to get a baseline. The total alcohol consumption was 25% higher in the FAH+ subject than in the FAH− subject. The number of HDDs and the number of DDs were at a similar level in all subgroups.
# The estimate on the subject's frequency of intoxication by subject's spouse or significant other was obtained again at the end of the study. Within the FAH+ subjects, there were more subjects in nalmefene 40 mg groups in categories “never” and “once or twice” than in other groups, and no subjects in the categories “at least once a week” or “every day”.
# [2] = In vitro permeation study, MDCK cell membranes; type: in vitro ADME, canine; details: dog
# Procedure: (§1) MDCK cells were seeded onto the coated filters at a concentration of about 100,000 cells/cm^2. The culture medium was both in apical and basolateral chambers during the whole culture period, and the culture medium was changed every day. The cells were confluent within three days. […] The incubator environment was the same as described above.
# (§2) MDCK cells were used for the permeation study on the 4th day when the TER value was about 250 Ω×cm^2. HBSS (Gibco, Paisley, Skotlanti) /10 mM HEPES was used a buffer solution. The permeation study was performed as described above. All the permeation studies were performed at 37° C. using a horizontal plate mixer (Heidolph Inkubator 1000 and Titramax 1000; Heidolph Electro GmbH & Co., Kelheim, Germany). After the studies, TER was metered. The TER data were not changed during the permeability studies.
# (§3) The apparent permeability coefficients were calculated as:
# (§4) Papp=J/(C×S), (Equation 1)
# (§5) Cs is the water solubility of nalmefene.
# MDCK cell membranes = assay: In vitro permeation study, MDCK cell membranes; type: in vitro ADME, canine
# Procedure: as §1, §2, §3, §4, §5
# [3] = cited from earlier work
# [4] = In vitro permeation study, HCE cell membranes; details: human
# HCE cell membranes = assay: In vitro permeation study, HCE cell membranes; details: HCE, Papp × water solubility
structure (smiles),measurement,setting,value
C=C1CC[C@@]2(O)[C@H]3Cc4ccc(O)c5c4[C@@]2(CCN3CC2CC2)[C@H]1O5 [nalmefene],number of HDDs,"[1]; FAH+ subjects, 10 mg once daily",smaller reduction in the early phase of the treatment
same,total alcohol consumption and number of HDDs,"[1]; FAH+ subjects, 10 mg, first month of treatment",positive tendency
same,Spouse or significant other estimate of frequency of intoxication: At least once a week (number of subjects),"[1]; FAH+ subjects, 10 mg",4
same,Spouse or significant other estimate of frequency of intoxication: At least once a week (share of subjects),"[1]; FAH+ subjects, 10 mg",21%
same,Spouse or significant other estimate of frequency of intoxication: Every day (number of subjects),"[1]; FAH+ subjects, 10 mg",0
same,Spouse or significant other estimate of frequency of intoxication: Every day (share of subjects),"[1]; FAH+ subjects, 10 mg",0%
same,Spouse or significant other estimate of frequency of intoxication: Never (number of subjects),"[1]; FAH+ subjects, 10 mg",1
same,Spouse or significant other estimate of frequency of intoxication: Never (share of subjects),"[1]; FAH+ subjects, 10 mg",5%
same,Spouse or significant other estimate of frequency of intoxication: Once or twice (number of subjects),"[1]; FAH+ subjects, 10 mg",6
same,Spouse or significant other estimate of frequency of intoxication: Once or twice (share of subjects),"[1]; FAH+ subjects, 10 mg",32%
same,Spouse or significant other estimate of frequency of intoxication: Several times a month (number of subjects),"[1]; FAH+ subjects, 10 mg",8
same,Spouse or significant other estimate of frequency of intoxication: Several times a month (share of subjects),"[1]; FAH+ subjects, 10 mg",42%
same,reduction of mean number of HDDs versus baseline,"[1]; FAH+ subjects, 40 mg daily oral, 4th month of treatment",about 60%
same,ratio of the number of HDDs to DDs,"[1]; FAH+ subjects, 40 mg daily, after treatment, baseline 85%",43%
same,number of DDs,"[1]; FAH+ subjects, 40 mg once daily",clear reduction
same,mean number of HDDs per month (28 days),"[1]; FAH+ subjects, 40 mg once daily oral, on treatment, baseline 14.5",6.0
same,mean number of drinks (monthly total alcohol consumption) as % of baseline,"[1]; FAH+ subjects, 40 mg, 4th month",about 40%
same,Spouse or significant other estimate of frequency of intoxication: At least once a week (number of subjects),"[1]; FAH+ subjects, 40 mg",0
same,Spouse or significant other estimate of frequency of intoxication: At least once a week (share of subjects),"[1]; FAH+ subjects, 40 mg",0%
same,Spouse or significant other estimate of frequency of intoxication: Every day (number of subjects),"[1]; FAH+ subjects, 40 mg",0
same,Spouse or significant other estimate of frequency of intoxication: Every day (share of subjects),"[1]; FAH+ subjects, 40 mg",0%
same,Spouse or significant other estimate of frequency of intoxication: Never (number of subjects),"[1]; FAH+ subjects, 40 mg",3
same,Spouse or significant other estimate of frequency of intoxication: Never (share of subjects),"[1]; FAH+ subjects, 40 mg",14%
same,Spouse or significant other estimate of frequency of intoxication: Once or twice (number of subjects),"[1]; FAH+ subjects, 40 mg",9
same,Spouse or significant other estimate of frequency of intoxication: Once or twice (share of subjects),"[1]; FAH+ subjects, 40 mg",41%
same,Spouse or significant other estimate of frequency of intoxication: Several times a month (number of subjects),"[1]; FAH+ subjects, 40 mg",14
same,Spouse or significant other estimate of frequency of intoxication: Several times a month (share of subjects),"[1]; FAH+ subjects, 40 mg",45%
same,mean number of heavy drinking days reduced by,"[1]; FAH+ subjects, daily oral 40 mg, fourth month of treatment (as worded)",40%
same,treatment effects on alcohol consumption versus placebo,[1]; FAH- subjects,not distinguishable from placebo
same,Spouse or significant other estimate of frequency of intoxication: At least once a week (number of subjects),"[1]; FAH- subjects, 10 mg",1
same,Spouse or significant other estimate of frequency of intoxication: At least once a week (share of subjects),"[1]; FAH- subjects, 10 mg",9%
same,Spouse or significant other estimate of frequency of intoxication: Every day (number of subjects),"[1]; FAH- subjects, 10 mg",1
same,Spouse or significant other estimate of frequency of intoxication: Every day (share of subjects),"[1]; FAH- subjects, 10 mg",9%
same,Spouse or significant other estimate of frequency of intoxication: Never (number of subjects),"[1]; FAH- subjects, 10 mg",1
same,Spouse or significant other estimate of frequency of intoxication: Never (share of subjects),"[1]; FAH- subjects, 10 mg",9%
same,Spouse or significant other estimate of frequency of intoxication: Once or twice (number of subjects),"[1]; FAH- subjects, 10 mg",4
same,Spouse or significant other estimate of frequency of intoxication: Once or twice (share of subjects),"[1]; FAH- subjects, 10 mg",36%
same,Spouse or significant other estimate of frequency of intoxication: Several times a month (number of subjects),"[1]; FAH- subjects, 10 mg",4
same,Spouse or significant other estimate of frequency of intoxication: Several times a month (share of subjects),"[1]; FAH- subjects, 10 mg",36%
same,Spouse or significant other estimate of frequency of intoxication: At least once a week (number of subjects),"[1]; FAH- subjects, 40 mg",1
same,Spouse or significant other estimate of frequency of intoxication: At least once a week (share of subjects),"[1]; FAH- subjects, 40 mg",8%
same,Spouse or significant other estimate of frequency of intoxication: Every day (number of subjects),"[1]; FAH- subjects, 40 mg",1
same,Spouse or significant other estimate of frequency of intoxication: Every day (share of subjects),"[1]; FAH- subjects, 40 mg",8%
same,Spouse or significant other estimate of frequency of intoxication: Never (number of subjects),"[1]; FAH- subjects, 40 mg",2
same,Spouse or significant other estimate of frequency of intoxication: Never (share of subjects),"[1]; FAH- subjects, 40 mg",15%
same,Spouse or significant other estimate of frequency of intoxication: Once or twice (number of subjects),"[1]; FAH- subjects, 40 mg",3
same,Spouse or significant other estimate of frequency of intoxication: Once or twice (share of subjects),"[1]; FAH- subjects, 40 mg",23%
same,Spouse or significant other estimate of frequency of intoxication: Several times a month (number of subjects),"[1]; FAH- subjects, 40 mg",5
same,Spouse or significant other estimate of frequency of intoxication: Several times a month (share of subjects),"[1]; FAH- subjects, 40 mg",38%
same,number of HDDs,"[1]; FAH- subjects, nalmefene 10 mg or 40 mg once daily",no clear treatment effects
same,mean number of drinks (monthly total alcohol consumption),"[1]; FAH- subjects, throughout the study",remained almost unchanged
same,"Papp A→B at 180 min, 500 μM","[2]; pH 6.5, n = 4, read-out: Permeability factor (Papp ± SD)",11.4 ± 0.59 ×10⁻⁶ cm/s
same,"Papp A→B at 180 min, 500 μM","[2]; pH 7.0, n = 4, read-out: Permeability factor (Papp ± SD)",18.27 ± 0.16 ×10⁻⁶ cm/s
same,"Papp A→B at 180 min, 500 μM","[2]; pH 7.5, n = 4, read-out: Permeability factor (Papp ± SD)",22.7 ± 1.08 ×10⁻⁶ cm/s
same,"Papp A→B at 180 min, 500 μM","[2]; pH 8.0, n = 4, read-out: Permeability factor (Papp ± SD)",23.9 ± 2.49 ×10⁻⁶ cm/s
same,Maximal administration rate Jmax × 10^−6 ± SD,"MDCK cell membranes; pH 6.5, n = 4, Papp × water solubility",1273 ± 66 × 10^−6 mg/(cm^2 s)
same,Maximal administration rate Jmax × 10^−6 ± SD,"MDCK cell membranes; pH 7.0, n = 4, Papp × water solubility",1618 ± 14 × 10^−6 mg/(cm^2 s)
same,Maximal administration rate Jmax × 10^−6 ± SD,"MDCK cell membranes; pH 7.5, n = 4, Papp × water solubility",723 ± 34 × 10^−6 mg/(cm^2 s)
same,Maximal administration rate Jmax × 10^−6 ± SD,"MDCK cell membranes; pH 8.0, n = 4, Papp × water solubility",10.6 ± 1.1 × 10^−6 mg/(cm^2 s)
same,pKa,[3],7.63
same,"Papp A→B at 180 min, 500 μM",[4]; pH 6.5,7.86 ± 0.29 ×10⁻⁶ cm/s
same,"Papp A→B at 180 min, 500 μM",[4]; pH 7,12.1 ± 0.79 ×10⁻⁶ cm/s
same,"Papp A→B at 180 min, 500 μM",[4]; pH 7.5,13.3 ± 0.61 ×10⁻⁶ cm/s
same,"Papp A→B at 180 min, 500 μM",[4]; pH 8,13.6 ± 1.64 ×10⁻⁶ cm/s
same,Maximal administration rate Jmax × 10^−6 ± SD,"HCE cell membranes; pH 6.5, n = 4",879 ± 32 × 10^−6 mg/(cm^2 s)
same,Maximal administration rate Jmax × 10^−6 ± SD,"HCE cell membranes; pH 7.0, n = 4",1072 ± 70 × 10^−6 mg/(cm^2 s)
same,Maximal administration rate Jmax × 10^−6 ± SD,"HCE cell membranes; pH 7.5, n = 4",423 ± 19 × 10^−6 mg/(cm^2 s)
same,Maximal administration rate Jmax × 10^−6 ± SD,"HCE cell membranes; pH 8.0, n = 4",6.0 ± 0.7 × 10^−6 mg/(cm^2 s)
